Experimental data taken from patent USRE40086E1, “Method for treating bacterial infection with novel 7-substituted-9-substituted amino 6-demethyl-6-deoxytetracyclines” (Wyeth Holdings Corporation, priority 1991, dated 2008).

How the values were obtained:
[1] = tested on: S. haemolyticus AVAH 88-3; assay: MIC, agar dilution; format: cell-based; conditions: S. hemolyticus AVHAH 88-3; Table IA; unit assumed
S. aureus ROSE (MP) = assay: MIC, agar dilution (Table IA); format: cell-based; conditions: unit assumed
E. coli J3272 TetD = assay: MIC, agar dilution (Table IA); format: cell-based; conditions: unit assumed
E. coli UBMS 89-1 (tetM) = assay: MIC, agar dilution; format: cell-based; conditions: E. coli UBMS 89-1 TetM; Table IA; unit assumed
E. coli ATCC 25922 = assay: MIC, agar dilution; format: cell-based; conditions: E. coli ATCC 25922; Table IA; unit assumed
E. coli #311 (MP) = assay: MIC, agar dilution (Table IA); format: cell-based; conditions: unit assumed
[2] = tested on: S. aureus UBMS 88-5 (tetM); assay: MIC, agar dilution; format: cell-based; conditions: S. aureus UBMS 88-5 TetM; Table IA; unit assumed
E. coli PRP1 TetA = assay: MIC, agar dilution (Table IA); format: cell-based; conditions: unit assumed
[3] = tested on: X. maltophilia NEMC 87210; assay: MIC, agar dilution (Table IA); format: cell-based; conditions: unit assumed
E. coli MC4100 Tet sens. = assay: MIC, agar dilution (Table IA); format: cell-based; conditions: unit assumed
[4] = tested on: S. aureus UBMS 88-4 (Sensitive); assay: MIC, agar dilution; format: cell-based; conditions: S. aureus UBMS 88-4; Table IA; unit assumed
S. mariescens FDOR 8733 = assay: MIC, agar dilution (Table IA); format: cell-based; conditions: unit assumed
E. coli J3272 TetC = assay: MIC, agar dilution (Table IA); format: cell-based; conditions: unit assumed
E. coli J2175 = assay: MIC, agar dilution (Table IA); format: cell-based; conditions: unit assumed
[5] = tested on: E. coli UBMS 89-2 (Sensitive); assay: MIC, agar dilution; format: cell-based; conditions: E. coli UBMS 89-2 Tet Sens.; Table IA; unit assumed
E. coli UBMS 90-4 (tetM) = assay: MIC, agar dilution; format: cell-based; conditions: E. coli UBMS 90-4 TetM; Table IA; unit assumed
[6] = tested on: S. aureus ATCC 29213 (Sensitive); assay: MIC, agar dilution; format: cell-based; conditions: S. aureus ATCC 29213; Table IA; unit assumed
S. aureus NEMC 8769/89-4 = assay: MIC, agar dilution (Table IA); format: cell-based; conditions: unit assumed
E. faecalis 12201 = assay: MIC, agar dilution; format: cell-based; conditions: Enterococcus 12201; Table IA; unit assumed
[7] = tested on: S. aureus Smith (Sensitive); assay: MIC, agar dilution; format: cell-based; conditions: S. aureus SMITH (MP); Table IA; unit assumed
[8] = tested on: S. aureus IVES 1983 (meth. resistant); assay: MIC, agar dilution; format: cell-based; conditions: S. aureus IVES 1983; Table IA; unit assumed
E. coli UBMS 88-1 (tetB) = assay: MIC, agar dilution; format: cell-based; conditions: E. coli UBMS 88-1 TetB; Table IA; unit assumed
[9] = tested on: S. aureus UBMS 90-1 (tetM); assay: MIC, agar dilution; format: cell-based; conditions: S. aureus UBMS 90-1 TetM; Table IA; unit assumed
[10] = tested on: Ps. acruginosa ATCC 27853; assay: MIC, agar dilution (Table IA); format: cell-based; conditions: unit assumed
E. coli BAJ9003 = assay: MIC, agar dilution (Table IA); format: cell-based; conditions: unit assumed
[11] = tested on: S. aureus UBMS 90-3 (Sensitive); assay: MIC, agar dilution; format: cell-based; conditions: S. aureus UBMS 90-3; Table IA; unit assumed
E. coli UBMS 90-5 = assay: MIC, agar dilution (Table IA); format: cell-based; conditions: unit assumed
E. faecalis ATCC 29212 = assay: MIC, agar dilution; format: cell-based; conditions: E. faecalis ATCC 29212; Table IA; unit assumed
[12] = tested on: S. aureus IVES 2943 (meth. resistant); assay: MIC, agar dilution; format: cell-based; conditions: S. aureus IVES 2943; Table IA; unit assumed
[13] = tested on: S. aureus UBMS 88-7 (tetK); assay: MIC, agar dilution; format: cell-based; conditions: S. aureus UBMS 88-7 TetK; Table IA; unit assumed
E. coli MC4100 TetB = assay: MIC, agar dilution (Table IA); format: cell-based; conditions: unit assumed
[14] = tested on: S. aureus UBMS 90-2 (tetM); assay: MIC, agar dilution; format: cell-based; conditions: S. aureus UBMS 90-2 TetM; Table IA; unit assumed
S. aureus SMITH (sens) = assay: In vivo antibacterial evaluation, acute lethal infection in mice; conditions: Oral
From the text: In Vivo Antibacterial Evaluation (Table VII)

With `CCCCCNCC(=O)Nc1cc(N(C)C)c2c(c1O)C(=O)C1=C(O)C3(O)C(=O)C(C(N)=O)=C(O)C(N(C)C)C3CC1C2.Cl.Cl` (stereo not drawn) [DDD, [4S-(4alpha,12aalpha)]-4,7-Bis(dimethylamino)-1,4 4a,5,5a,6,11,12a-octahydro-3,10-12,12a-tetrahydroxy-1,11-dioxo-9-[[(pentylamino)acetyl]amino)-2-naphthacenecarboxamide dihydrochloride] the Antibacterial activity (MIC) [1] was 0.5 µg/mL, the Antibacterial activity (MIC) (S. aureus ROSE (MP)) was 4 µg/mL and the Antibacterial activity (MIC) (E. coli J3272 TetD) was 0.25 µg/mL. The Antibacterial activity (MIC) (E. coli UBMS 89-1 (tetM)) was 0.25 µg/mL, the Antibacterial activity (MIC) (E. coli ATCC 25922) was 0.5 µg/mL and the Antibacterial activity (MIC) (E. coli #311 (MP)) was 0.5 µg/mL. For the same molecule, the Antibacterial activity (MIC) [2] was 0.5 µg/mL, the Antibacterial activity (MIC) (E. coli PRP1 TetA) was 1 µg/mL and the Antibacterial activity (MIC) [3] was 0.5 µg/mL. It also gave an Antibacterial activity (MIC) (E. coli MC4100 Tet sens.) of 0.12 µg/mL, an Antibacterial activity (MIC) [4] of 0.5 µg/mL and an Antibacterial activity (MIC) (S. mariescens FDOR 8733) of 8 µg/mL. The Antibacterial activity (MIC) (E. coli J3272 TetC) was 0.5 µg/mL, the Antibacterial activity (MIC) (E. coli J2175) was 0.5 µg/mL and the Antibacterial activity (MIC) [5] was 0.5 µg/mL. The Antibacterial activity (MIC) (E. coli UBMS 90-4 (tetM)) was 0.5 µg/mL, the Antibacterial activity (MIC) [6] was 1 µg/mL and the Antibacterial activity (MIC) (S. aureus NEMC 8769/89-4) was 0.25 µg/mL. It also gave an Antibacterial activity (MIC) (E. faecalis 12201) of 0.25 µg/mL, an Antibacterial activity (MIC) [7] of 0.25 µg/mL and an Antibacterial activity (MIC) [8] of 4 µg/mL. The Antibacterial activity (MIC) (E. coli UBMS 88-1 (tetB)) was 0.5 µg/mL, the Antibacterial activity (MIC) [9] was 1 µg/mL and the Antibacterial activity (MIC) [10] was 32 µg/mL. For the same molecule, the Antibacterial activity (MIC) (E. coli BAJ9003) was 0.12 µg/mL, the Antibacterial activity (MIC) [11] was 0.5 µg/mL and the Antibacterial activity (MIC) (E. coli UBMS 90-5) was 0.5 µg/mL. For the same molecule, the Antibacterial activity (MIC) (E. faecalis ATCC 29212) was 0.25 µg/mL, the Antibacterial activity (MIC) [12] was 4 µg/mL and the Antibacterial activity (MIC) [13] was 2 µg/mL. The Antibacterial activity (MIC) (E. coli MC4100 TetB) was 0.5 µg/mL, the Antibacterial activity (MIC) [14] was 0.5 µg/mL and the ED50 (S. aureus SMITH (sens)) was 8 to 16 mg/kg.
In the case of `CN(C)c1cc(NC(=O)CNCc2ccccc2)c(O)c2c1CC1CC3C(N(C)C)C(O)=C(C(N)=O)C(=O)C3(O)C(O)=C1C2=O.Cl.Cl` (stereo not drawn) [EEE, [4S-(4alpha,12aalpha)]-4,7-Bis(dimethylamino)-1,4,4a,5,5a,6,11,12a-octahydro-3,10,12,12a-tetrahydroxy-1,11-dioxo-9-[[[(phenylmethyl)amino]acetyl]amino]-2-naphthacenecarboxamide dihydrochloride], the Antibacterial activity (MIC) [1] was 2 µg/mL, the Antibacterial activity (MIC) (S. aureus ROSE (MP)) was 8 µg/mL and the Antibacterial activity (MIC) (E. coli J3272 TetD) was 0.5 µg/mL. For the same molecule, the Antibacterial activity (MIC) (E. coli UBMS 89-1 (tetM)) was 0.5 µg/mL, the Antibacterial activity (MIC) (E. coli ATCC 25922) was 0.5 µg/mL and the Antibacterial activity (MIC) (E. coli #311 (MP)) was 0.5 µg/mL. The Antibacterial activity (MIC) [2] was 0.5 µg/mL, the Antibacterial activity (MIC) (E. coli PRP1 TetA) was 4 µg/mL and the Antibacterial activity (MIC) [3] was 1 µg/mL. For the same molecule, the Antibacterial activity (MIC) (E. coli MC4100 Tet sens.) was 0.5 µg/mL, the Antibacterial activity (MIC) [4] was 0.25 µg/mL and the Antibacterial activity (MIC) (S. mariescens FDOR 8733) was 4 µg/mL. The Antibacterial activity (MIC) (E. coli J3272 TetC) was 2 µg/mL, the Antibacterial activity (MIC) (E. coli J2175) was 4 µg/mL and the Antibacterial activity (MIC) [5] was 4 µg/mL. For the same molecule, the Antibacterial activity (MIC) (E. coli UBMS 90-4 (tetM)) was 0.5 µg/mL, the Antibacterial activity (MIC) [6] was 0.5 µg/mL and the Antibacterial activity (MIC) (S. aureus NEMC 8769/89-4) was 0.12 µg/mL. The Antibacterial activity (MIC) (E. faecalis 12201) was 0.25 µg/mL, the Antibacterial activity (MIC) [7] was 0.25 µg/mL and the Antibacterial activity (MIC) [8] was 2 µg/mL. For the same molecule, the Antibacterial activity (MIC) (E. coli UBMS 88-1 (tetB)) was 2 µg/mL, the Antibacterial activity (MIC) [9] was 0.5 µg/mL and the Antibacterial activity (MIC) [10] was 32 µg/mL. The Antibacterial activity (MIC) (E. coli BAJ9003) was 0.25 µg/mL, the Antibacterial activity (MIC) [11] was 0.25 µg/mL and the Antibacterial activity (MIC) (E. coli UBMS 90-5) was 0.5 µg/mL. The Antibacterial activity (MIC) (E. faecalis ATCC 29212) was 0.25 µg/mL, the Antibacterial activity (MIC) [12] was 2 µg/mL and the Antibacterial activity (MIC) [13] was 2 µg/mL. For the same molecule, the Antibacterial activity (MIC) (E. coli MC4100 TetB) was 4 µg/mL, the Antibacterial activity (MIC) [14] was 0.25 µg/mL and the ED50 (S. aureus SMITH (sens)) was 8 to 16 mg/kg.
